Test results as given in ChEMBL document CHEMBL1201862, “PubChem BioAssay data set” (2004).
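In this assay, cells in 96-well plates receive the compound at five concentrations for 48 hours. Endpoints are linearly interpolated between the surrounding concentrations. At the GI50, growth is halved.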 Activity calls are given as the source filed them. No stated cut-off is given here; in the data, active = GI50 up to about 1.1 µM and inactive = higher.

Columns and labels:
Test in all cases: DTP human tumour cell line panel, 48 h
[1] = test system: SF-295
[2] = test system: MCF7
[3] = test system: SK-MEL-5
[4] = test system: Malme-3M
[5] = test system: SW-620
[6] = test system: SK-MEL-2
[7] = test system: TK-10
[8] = test system: UO-31
[9] = test system: SR
[10] = test system: HCT-116
[11] = test system: SF-268
[12] = test system: Hs-578T
[13] = test system: SK-OV-3
[14] = test system: MDA-MB-435
[15] = test system: NCI-H23
[16] = test system: OVCAR-5
[17] = test system: OVCAR-8
[18] = test system: SK-MEL-28
[19] = test system: OVCAR-3

Row | Structure (SMILES) | GI50 [1] | GI50 [2] | GI50 [3] | GI50 [4] | GI50 [5] | GI50 [6] | GI50 [7] | GI50 [8] | GI50 [9] | GI50 [10] | GI50 [11] | GI50 [12] | GI50 [13] | GI50 [14] | GI50 [15] | GI50 [16] | GI50 [17] | GI50 [18] | GI50 [19]
1 | CCOc1nc2sc3c(c2c(=O)n1CCSSCCn1c(OCC)nc2sc4c(c2c1=O)CCCC4)CCCC3 | > 100 µM (inactive) | > 100 µM (inactive) | > 100 µM (inactive) | > 100 µM (inactive) | > 100 µM (inactive) | > 100 µM (inactive) | > 100 µM (inactive) | > 100 µM (inactive) | > 100 µM (inactive) | > 100 µM (inactive) | > 100 µM (inactive) | > 100 µM (inactive) | > 100 µM (inactive) | > 100 µM (inactive) | > 100 µM (inactive) | > 100 µM (inactive) | 67.8 µM (inactive) | > 100 µM (inactive) | > 100 µM (inactive)
2 | CC1CCc2c(c(CC3CC(=O)NC(=O)C3)nn2-c2ccccc2)C1 (stereo unspecified) | > 100 µM (inactive) | > 100 µM (inactive) | > 100 µM (inactive) | > 100 µM (inactive) | > 100 µM (inactive) | > 100 µM (inactive) | > 100 µM (inactive) | 55.6 µM (inactive) | > 100 µM (inactive) | > 100 µM (inactive) | > 100 µM (inactive) | > 100 µM (inactive) | > 100 µM (inactive) | > 100 µM (inactive) | > 100 µM (inactive) | > 100 µM (inactive) | 93.8 µM (inactive) | > 100 µM (inactive) | > 100 µM (inactive)
3 | Nc1ccc2[nH]c(C(=O)N3CC(CCl)c4c3cc(N)c3ccccc43)cc2c1 (stereo unspecified) | < 0.01 µM (active) | < 0.01 µM (active) | < 0.01 µM (active) | – | < 0.01 µM (active) | < 0.01 µM (active) | < 0.01 µM (active) | 0.0114 µM (active) | < 0.01 µM (active) | < 0.01 µM (active) | < 0.01 µM (active) | 0.0204 µM (active) | 0.0175 µM (active) | 0.011 µM (active) | < 0.01 µM (active) | < 0.01 µM (active) | < 0.01 µM (active) | 0.013 µM (active) | 0.0166 µM (active)
